In patent US6451813B1, “Treatment of gastroparesis in certain patient groups” (R. T. Alamo Ventures I, LLC, priority 2001, dated 2002):

Tests used:
[1] = cited from earlier work
[2] = Solubility of flosequinan; assay type: physicochemical; details: water; organic solvents
Excerpt: Thus, while the present invention is not limited by the form of oral administration, aqueous and organic solution of flosequinan for oral administration is contemplated. Likewise, flosequinan can be associated with a solid pharmaceutical carrier for solid oral administration (i.e., in pill form).

[3] = biological target: T1, PDE6 partially purified from bovine retinal rod and activated by trypsin (Bos taurus, UniProt P11541+P23439); test: PDE6 biochemical enzyme assay ([3H]cGMP hydrolysis); details: Example 1; versus Viagra 0.3 μM
T1 construct: from tissue; host or cells: bovine retinal rod
T1 sequence (P11541 2-856 limits assumed): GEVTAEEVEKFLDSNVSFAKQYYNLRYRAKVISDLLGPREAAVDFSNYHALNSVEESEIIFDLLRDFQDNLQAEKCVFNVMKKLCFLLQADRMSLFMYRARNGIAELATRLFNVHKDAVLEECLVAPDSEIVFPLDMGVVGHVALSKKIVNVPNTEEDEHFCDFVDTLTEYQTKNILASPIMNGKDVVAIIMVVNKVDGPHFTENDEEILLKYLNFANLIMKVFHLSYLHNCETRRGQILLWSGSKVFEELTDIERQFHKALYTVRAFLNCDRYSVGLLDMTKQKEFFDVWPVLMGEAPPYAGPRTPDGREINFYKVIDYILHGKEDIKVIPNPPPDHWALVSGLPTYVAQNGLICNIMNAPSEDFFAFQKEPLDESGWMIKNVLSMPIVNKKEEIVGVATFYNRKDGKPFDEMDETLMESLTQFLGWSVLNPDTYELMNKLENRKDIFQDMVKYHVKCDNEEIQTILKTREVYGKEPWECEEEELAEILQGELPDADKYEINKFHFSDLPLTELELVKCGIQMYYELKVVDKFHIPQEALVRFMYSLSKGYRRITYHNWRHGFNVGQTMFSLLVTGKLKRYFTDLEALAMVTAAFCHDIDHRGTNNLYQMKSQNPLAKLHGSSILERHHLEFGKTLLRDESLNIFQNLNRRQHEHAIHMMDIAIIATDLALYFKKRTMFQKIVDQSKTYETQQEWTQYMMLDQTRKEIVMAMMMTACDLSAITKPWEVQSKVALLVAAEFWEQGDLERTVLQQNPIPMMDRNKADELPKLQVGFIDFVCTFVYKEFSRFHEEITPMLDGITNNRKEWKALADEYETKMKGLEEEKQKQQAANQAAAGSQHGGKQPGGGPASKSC
T1 sequence (P23439 2-850 limits assumed): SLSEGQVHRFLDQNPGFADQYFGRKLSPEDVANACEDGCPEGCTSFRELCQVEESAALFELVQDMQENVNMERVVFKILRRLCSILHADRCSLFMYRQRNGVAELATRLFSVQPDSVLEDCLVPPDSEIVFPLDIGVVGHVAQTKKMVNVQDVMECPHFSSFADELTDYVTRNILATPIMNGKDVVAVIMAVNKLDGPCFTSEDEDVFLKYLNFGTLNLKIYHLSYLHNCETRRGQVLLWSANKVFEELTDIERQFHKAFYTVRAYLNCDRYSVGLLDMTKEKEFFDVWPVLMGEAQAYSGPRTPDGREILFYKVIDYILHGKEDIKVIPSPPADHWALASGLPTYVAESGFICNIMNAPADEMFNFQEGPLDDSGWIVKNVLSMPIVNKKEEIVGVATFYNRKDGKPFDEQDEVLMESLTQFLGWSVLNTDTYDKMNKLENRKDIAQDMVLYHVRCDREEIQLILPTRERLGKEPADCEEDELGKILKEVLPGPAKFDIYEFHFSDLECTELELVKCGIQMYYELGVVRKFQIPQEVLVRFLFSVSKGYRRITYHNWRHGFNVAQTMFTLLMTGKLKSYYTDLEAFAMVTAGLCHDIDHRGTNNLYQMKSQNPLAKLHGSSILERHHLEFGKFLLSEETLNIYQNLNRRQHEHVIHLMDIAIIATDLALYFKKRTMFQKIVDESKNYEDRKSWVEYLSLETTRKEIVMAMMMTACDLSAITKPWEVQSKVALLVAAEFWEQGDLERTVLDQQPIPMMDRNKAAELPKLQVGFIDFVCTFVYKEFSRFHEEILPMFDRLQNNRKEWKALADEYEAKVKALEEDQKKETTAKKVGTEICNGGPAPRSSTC
Experimental: PDE6 partially purified from bovine retinal rod and activated by trypsin was used. […] Each reaction was terminated by raising the temperature to 100° C. for 2 minutes. The resulting GMP was converted to guanosine by addition of 10 mg/ml snake venom nucleotidase and further incubated at 30° C. for 10 minutes. Unhydrolyzed cGMP was bound to AGI-X2 resin, and [^3H]guanosine remaining in the aqueous phase was quantitated by scintillation counting.
PDE6: PDE6 partially purified from bovine retinal rod and activated by trypsin was used. […] Each reaction was terminated by boiling for 2 minutes. The resulting GMP was converted to guanosine by addition of 10 mg/ml snake venom nucleotidase, and further incubated at 30° C. for 10 minutes. Unhydrolyzed cGMP was bound to AGI-X2 resin, and [^3H]guanosine remaining in the aqueous phase was quantitated by scintillation counting.

[4] = tested on: PDE1 partially purified from bovine heart; test: PDE1 biochemical enzyme assay ([3H]cAMP hydrolysis); details: 100 μM; for % Inhibition of PDE1: Example 3
Experimental: In this example, a racemic mixture of flosequinan and the (+) and (−) enantiomers of flosequinan were subjected to biochemical enzyme assays to determine their respective percent inhibition of a variety of phosphodiesterases (PDE1-PDE6). The reaction conditions for each PDE assay were as follows. PDE1: PDE1 partially purified from bovine heart was used. A racemic mixture of flosequinan, and each enantiomer of flosequinan, all at a molar concentration of 100 μM, were independently incubated with 13 μg PDE1 enzyme, 1.0 μM [^3H]cAMP and CaCl2/calmodulin in Tris buffer pH 7.5 for 20 minutes at 30° C. The reaction was terminated by boiling for 2 minutes, and the resulting AMP was converted to adenosine by addition of 10 mg/ml snake venom nucleotidase and further incubation at 30° C. for 10 minutes. Unhydrolyzed cAMP was bound to AGI-X2 resin, and the remaining [^3H]adenosine in the aqueous phase was quantitated by scintillation counting.

[5] = biological target: T2, PDE3 partially purified from human platelets (Homo sapiens, UniProt Q14432); test: PDE3 biochemical enzyme assay ([3H]cAMP hydrolysis); details: 100 μM
T2 construct: PDE3 partially purified from human platelets was used; from tissue; host or cells: human platelets
Experimental: PDE3: PDE3 partially purified from human platelets was used. A racemic mixture of flosequinan, and each enantiomer of flosequinan, all at a molar concentration of 100 μM, were independently incubated with 13 μg PDE3 enzyme and 1 μM cAMP containing 0.01 μM [^3H]cAMP in Tris buffer pH 7.5 for 20 minutes at 30° C. The reaction was terminated by boiling for 2 minutes, and the resulting AMP was converted to adenosine by addition of 10 mg/ml snake venom nucleotidase and further incubation at 30° C. for 10 minutes. Unhydrolyzed cAMP was bound to AGI-X2 resin, and the remaining [^3H]adenosine in the aqueous phase was quantitated by scintillation counting.

[6] = following oral administration; cited from earlier work

T2 sequence (Q14432 whole entry): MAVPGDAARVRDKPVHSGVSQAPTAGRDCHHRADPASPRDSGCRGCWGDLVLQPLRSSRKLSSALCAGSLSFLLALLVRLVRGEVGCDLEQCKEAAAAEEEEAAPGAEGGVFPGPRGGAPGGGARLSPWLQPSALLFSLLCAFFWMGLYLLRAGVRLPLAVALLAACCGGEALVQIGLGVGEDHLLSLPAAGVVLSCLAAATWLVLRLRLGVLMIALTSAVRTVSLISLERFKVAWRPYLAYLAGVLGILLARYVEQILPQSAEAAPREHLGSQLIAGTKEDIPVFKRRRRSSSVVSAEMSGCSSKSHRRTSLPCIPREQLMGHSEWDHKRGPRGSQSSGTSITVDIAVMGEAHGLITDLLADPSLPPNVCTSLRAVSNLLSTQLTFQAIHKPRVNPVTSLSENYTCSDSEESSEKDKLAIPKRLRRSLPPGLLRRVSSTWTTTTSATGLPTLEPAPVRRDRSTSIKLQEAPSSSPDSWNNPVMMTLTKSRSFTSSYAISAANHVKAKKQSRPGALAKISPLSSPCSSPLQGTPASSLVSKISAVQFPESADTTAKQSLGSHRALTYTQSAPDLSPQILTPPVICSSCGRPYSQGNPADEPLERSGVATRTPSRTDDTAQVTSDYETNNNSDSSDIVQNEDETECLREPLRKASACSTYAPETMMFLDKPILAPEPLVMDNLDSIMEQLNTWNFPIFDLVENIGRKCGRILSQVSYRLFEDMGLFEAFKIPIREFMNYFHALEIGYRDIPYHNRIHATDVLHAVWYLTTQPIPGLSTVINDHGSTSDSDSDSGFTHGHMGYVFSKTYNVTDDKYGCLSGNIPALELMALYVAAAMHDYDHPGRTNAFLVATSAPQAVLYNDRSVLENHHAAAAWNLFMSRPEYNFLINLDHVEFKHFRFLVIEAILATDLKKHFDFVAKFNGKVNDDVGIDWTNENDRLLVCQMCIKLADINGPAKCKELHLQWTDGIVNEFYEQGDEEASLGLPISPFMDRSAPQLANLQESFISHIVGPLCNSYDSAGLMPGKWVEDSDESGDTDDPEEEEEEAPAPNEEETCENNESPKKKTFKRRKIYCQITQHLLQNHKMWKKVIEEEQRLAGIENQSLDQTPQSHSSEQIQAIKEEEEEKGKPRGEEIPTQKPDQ

Cn1cc([S+](C)[O-])c(=O)c2ccc(F)cc21 (racemic) [Flosequinan, 7-fluoro-1-methyl-3-(methylsulphinyl)-4(1H)-quinolone]
time of peak plasma concentrations of flosequinan ([1]; following oral administration): 1 to 2 h | time of peak metabolite plasma levels ([1]; following oral dosage of flosequinan): about seven | mean absolute bioavailability ([1]; oral, single dose of fifty milligrams): 72% | solubility [2]: water soluble and is soluble in many organic solvents | times more compound on a molar basis than Viagra for around 50% inhibition of PDE6 [3]: more than 300 times | % Inhibition of PDE1 [4]: 31%

Cn1cc([S+](C)[O-])c(=O)c2ccc(F)cc21 (single isomer, unassigned; (-)) [(−)-flosequinan]
% Inhibition of PDE1 [4]: 11%

Cn1cc([S@@+](C)[O-])c(=O)c2ccc(F)cc21 [(+)-flosequinan]
PDE3 inhibitory activity compared with the (−) enantiomer of flosequinan [5]: more PDE1 and PDE3 inhibitory activity | PDE1 inhibitory activity compared with the (−) enantiomer of flosequinan [4]: more PDE1 and PDE3 inhibitory activity | % Inhibition of PDE1 [4]: 28%

O=C1CCc2cc(OCCCCc3nnnn3C3CCCCC3)ccc2N1 [cilostazol, 6-[4-(1-cyclohexyl-1H-tetrazol-5-yl)butoxy]-3,4-dihydro-2(1H)-quinolinone]
time of peak plasma concentrations of cilostazol [6]: 2 to 4 h
